Assays:
[1] = target: T1, His6-TTD (UHRF1 tandem Tudor domain) vs. H3K9me3 peptide (Homo sapiens, UniProt Q96T88); assay: TR-FRET assay: His6-TTD interaction with H3K9me3 peptide; assay type: biochemical; conditions: EC50 ± S.E.M., n=3; highest concentration tested 1 mM
T1 construct: Using the isolated His6-TTD (aa 123–283) we performed a thermal shift assay; made in house; host or cells: Rosetta (DE3) E. coli, pMCSG7
T1 sequence (Q96T88 123-283): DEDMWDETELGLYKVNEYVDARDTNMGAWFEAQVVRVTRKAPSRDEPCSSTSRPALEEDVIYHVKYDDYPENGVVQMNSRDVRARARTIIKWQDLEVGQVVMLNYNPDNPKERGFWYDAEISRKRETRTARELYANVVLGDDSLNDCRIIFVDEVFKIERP
Protocol: Finally, the fragment library was screened using a TR-FRET assay to find inhibitors that block the interaction of His6-TTD with H3K9me3 peptide. In this assay, an anti-His6-antibody labeled with Tb cryptate binds to His6-TTD while a streptavidin-d2 acceptor binds to a biotinylated histone H3K9me3 peptide. The binding between His6-TTD and H3K9me3 peptide was measured by the ratio of 665 nm fluorescence (from the d2 acceptor) to 620 nm fluorescence (from the Tb cryptate donor) (Fig. 1D).
The fragment screen was carried out on low volume 384-well white plates (Corning 4512) and the assay was performed at room temperature. […] After 1 h of incubation, the fluorescent signals at 665 nm and 620 nm of each plate were measured by the Tecan Infinite M1000 plate reader (excitation 340 nm, 60 µs lag time, and 500 µs integration time) and the TR-FRET signal was calculated by the ratio of 665 nm/620 nm fluorescent signal. For the fragment screen, on seven of the library plates there were 32-wells of DMSO control, while there were 8-wells of DMSO control in the last plate. […] The only difference was that the final concentration of His6-TTD-PHD was 200 nM, biotin-H3K9me3 peptide was 200 nM for the His6-TTD-PHD TR-FRET assay, while the final concentration of His6-UHRF1-FL was 200 nM and biotin-H3K9me3 peptide was 100 nM for the His6-UHRF1-FL TR-FRET assay. The buffer pH was 7.5 for the His6-TTD-PHD and His6-UHRF1-FL assays.

N-UHRF1 vs. C-UHRF1 = target: T2, N-UHRF1 vs. C-UHRF1 (Homo sapiens, UniProt Q96T88); assay: AlphaScreen assay: N-UHRF1 interaction with C-UHRF1 (TTD:PBR); assay type: biochemical; conditions: for AlphaScreen (N-UHRF1 vs. C-UHRF1) EC50 / EC50: EC50 ± S.E.M., n=3, highest concentration tested 1 mM; for inhibition of N-UHRF1:C-UHRF1 interaction by peptide (in words): peptide (1-20) at 50 µM (Fig. S1)
T2 construct: biotinylated-AviTag-N-UHRF1 (containing UBL and TTD, aa 1–285); made in house; host or cells: Rosetta (DE3) E. coli; pMCSG51 (N-UHRF1), pMCSG7 (FLAG-C-UHRF1)
T2 sequence (Q96T88 1-285): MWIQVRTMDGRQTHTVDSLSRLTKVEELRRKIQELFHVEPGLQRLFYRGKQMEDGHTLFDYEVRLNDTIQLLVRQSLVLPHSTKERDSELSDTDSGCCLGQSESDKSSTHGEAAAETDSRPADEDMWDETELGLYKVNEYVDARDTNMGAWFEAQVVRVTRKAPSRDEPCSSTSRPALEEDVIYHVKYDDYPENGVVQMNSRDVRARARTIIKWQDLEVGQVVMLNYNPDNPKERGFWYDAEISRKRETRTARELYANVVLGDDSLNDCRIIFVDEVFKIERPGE
Source text: We next turned our attention to screens that reported on functional effects of fragment binding to UHRF1-TTD. UHRF1 can assume two functionally distinct conformations that are favored by different intra-molecular interactions[15],[32]–[35]. UHRF1 assumes a ‘closed’ conformation with diminished E3 ligase activity when the TTD domain interacts with the internal PBR[32]–[35]. To identify compounds that block this internal TTD:PBR interaction, we developed an assay using AlphaScreen (Amplified Luminescent Proximity Homogeneous Assay, Perkin Elmer) technology that detects the interaction between biotinylated-AviTag-N-UHRF1 (containing UBL and TTD, aa 1–285) and FLAG-C-UHRF1 (containing SRA, RING E3 domains and PBR, aa 414–793) (Fig. 1A,C). […] The signal change in each well was calculated relative to DMSO controls on each plate.
The fragment screen was carried out on low volume 384-well white plates (Corning 4512) and the assay was performed at room temperature. First, 5 µl of AlphaScreen buffer (50 mM HEPES, pH = 6.5, 150 mM NaCl, 0.1% Triton X-100, 1 mM DTT) was dispensed by multidrop combi microplate dispenser (Thermo Scientific) and 300 nl of chemical fragment stock (10 mM in DMSO) was added to each well by pintool using Tecan Freedom Evo liquid handler. Next, 3 µl of AlphaScreen reagent mix containing 768 nM of Biotinylated-His-Avitag-N-UHRF1, 768 nM of FLAG-C-UHRF1, 40 µg/ml streptavidin donor beads, and 40 µg/ml Anti-FLAG conjugated acceptor beads (PerkinElmer) was added to each well by multidrop. The final concentration of FLAG-C-UHRF1 was 300 nM, Biotinylated-His-Avitag-N-UHRF1 was 300 nM, Donor/acceptor beads each was 15 µg/ml. In this assay, the biotinylated-AviTag-N-UHRF1 binds to streptavidin-coated donor beads while the FLAG-C-UHRF1 interacts with the anti-FLAG antibody-coated acceptor beads. The final compound concentration was 360 µM. After 1 h of incubation, the AlphaScreen signal of each plate was measured with a Tecan Infinite M1000 plate reader, which uses a high-power laser (680 nm, 750 mW) as the excitation light source for the donor beads and the AlphaScreen filter was used to detect the emission between 520 and 620 nm from the acceptor beads. For the dose-dependent assays for SAR, the final concentrations of N-UHRF1, C-UHRF1, donor, and acceptor beads were the same as fragment screen. The only differences were that the phosphate buffer was used (50 mM sodium phosphate, pH = 7, 150 mM NaCl, 1 mM DTT, and 0.1% Triton-X-100) and the final volume was 10 µL. For the fragment screen, on seven of the library plates there were 32-wells of DMSO control, while there were 8-wells of DMSO control in the last plate.

UHRF1-TTD = target: T3, UHRF1-TTD (Homo sapiens, UniProt Q96T88); assay: Thermal shift assay (TSA) of TTD; assay type: binding; conditions: for ΔTm at 500 µM / TSA (ΔTm) at 500 μM: compound at 500 μM, untagged TTD, 150 mM NaCl, mean ± S.D., n=3; for ΔTm at 200 µM: fragment screen, His6-TTD, final compound concentration 200 µM, 300 mM NaCl, read-out: ThermoFluor (ΔTm), fragment screen
T3 construct: Using the isolated His6-TTD (aa 123–283) we performed a thermal shift assay; His6 (N, cleaved yes); made in house; host or cells: Rosetta (DE3) E. coli, pMCSG7
T3 sequence (Q96T88 123-283): T1 sequence (Q96T88 123-283)
Protocol: We used three different assays in parallel to screen a ~ 2300-fragment library to identify hits that bind to TTD or inhibit its activities. The first screening method was a direct binding assay, which generally serves as the basis for most fragment screening. Using the isolated His6-TTD (aa 123–283) we performed a thermal shift assay (TSA) to determine the change in melting temperature upon fragment binding. The change in protein melting temperature (ΔTm) caused by each fragment was calculated by comparison to the DMSO controls on the same plate.
The fragment screen was carried out on LightCycler 480 Multiwell Plates 384 (Roche). The TSA mix contains 0.15 mg/ml of His6-TTD, 10 × of SYPRO Orange dye (ThermoFisher) in the TSA buffer (50 mM sodium phosphate, pH = 7, 300 mM NaCl). During the screen, 5 µl of TSA mix was dispensed into each well, and 100 nl of chemical fragments stock (10 mM in DMSO) was added to each well by pintool using Tecan Freedom Evo liquid handler to make the final compound concentration 200 µM. After 1 h of incubation at room temperature, the increase of fluorescence at 580 nm (excitation 465 nm) during the 20–90 degree melting (0.04 °C/s) was measured by LightCycler 480 Instrument II (Roche). For the fragment screen, on seven of the library plates there were 32-wells of DMSO control, while there were 8-wells of DMSO control in the last plate. […] Using un-tagged TTD for TSA provide closer resemblance to the native state of TTD. The lower salt concentration (150 mM NaCl) also allowed better comparison across three different assays during the dose-dependent SAR studies as both AlphaScreen and TR-FRET assay also use buffers containing 150 mM NaCl.

UHRF1-SRA domain = target: T4, UHRF1-SRA domain (Homo sapiens, UniProt Q96T88); assay: TSA against UHRF1-SRA domain; assay type: binding; conditions: fragment screen
T4 construct: unrelated protein targets (USP7-UBL1/2, UHRF1-SRA domain, and DNMT1-RFTS domain)
T4 sequence (Q96T88 419-582 limits assumed): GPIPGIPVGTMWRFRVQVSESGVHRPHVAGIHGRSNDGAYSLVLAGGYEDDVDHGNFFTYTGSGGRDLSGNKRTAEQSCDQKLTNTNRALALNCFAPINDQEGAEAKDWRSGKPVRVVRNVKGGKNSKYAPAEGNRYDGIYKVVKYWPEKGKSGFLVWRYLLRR
Source text: (§1) F1957-0227 was identified as a hit in two other AlphaScreen assays (N-UHRF1 vs. USP7-UBL1/2 and UHRF1-SRA domain vs. DNMT1-RFTS domain) and in three TSAs against unrelated protein targets (USP7-UBL1/2, UHRF1-SRA domain, and DNMT1-RFTS domain); we concluded that F1957-0227 behaves as a pan-assay interference compound (PAINS)[53] and is thus not suitable for follow-up.

[2] = target: T5, UHRF1-SRA domain vs. DNMT1-RFTS domain (Homo sapiens, UniProt P26358+Q96T88); assay: AlphaScreen assay UHRF1-SRA domain vs. DNMT1-RFTS domain (other screen); assay type: biochemical; conditions: fragment screen
T5 construct: UHRF1-SRA domain vs. DNMT1-RFTS domain
T5 sequence (P26358 400-533 limits assumed, one chain of several): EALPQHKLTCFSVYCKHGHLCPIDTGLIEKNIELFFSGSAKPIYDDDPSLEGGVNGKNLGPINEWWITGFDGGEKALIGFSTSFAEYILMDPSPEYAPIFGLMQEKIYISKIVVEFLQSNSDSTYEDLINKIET
Source text: as §1

DNMT1-RFTS domain = target: T6, DNMT1-RFTS domain (Homo sapiens, UniProt P26358); assay: TSA against DNMT1-RFTS domain; assay type: binding; conditions: fragment screen
T6 construct: unrelated protein targets (USP7-UBL1/2, UHRF1-SRA domain, and DNMT1-RFTS domain)
T6 sequence (P26358 400-533 limits assumed): as the sequence (P26358 400-533 limits assumed, one chain of several) above
Source text: as §1

USP7-UBL1/2 = USP7-UBL1/2 (Homo sapiens, UniProt Q93009); assay: TSA against USP7-UBL1/2; assay type: binding; conditions: fragment screen
Sequence of USP7-UBL1/2 (Q93009 560-776 limits assumed): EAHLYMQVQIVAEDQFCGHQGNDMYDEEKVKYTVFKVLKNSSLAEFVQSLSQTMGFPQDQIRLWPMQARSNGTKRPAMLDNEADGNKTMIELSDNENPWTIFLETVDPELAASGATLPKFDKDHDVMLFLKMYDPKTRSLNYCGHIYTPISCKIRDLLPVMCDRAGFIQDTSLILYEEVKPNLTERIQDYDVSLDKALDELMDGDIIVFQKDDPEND
Source text: as §1

N-UHRF1 vs. USP7-UBL1/2 = assay: AlphaScreen assay N-UHRF1 vs. USP7-UBL1/2 (other screen); assay type: biochemical; conditions: fragment screen
Source text: as §1

| Molecule | EC50 [1] | EC50 (N-UHRF1 vs. C-UHRF1) | TSA (ΔTm) at 500 μM (UHRF1-TTD) | other results |
| --- | --- | --- | --- | --- |
| c1cnc2c(c1)NCCN2 [Compound 7, 1,2,3,4-tetrahydropyrido[2,3-b]pyrazine] | > 500 µM |  |  | AlphaScreen (N-UHRF1 vs. C-UHRF1) EC50 (N-UHRF1 vs. C-UHRF1): 379.8 ± 176.0 µM; ΔTm at 500 µM (UHRF1-TTD): 0.19 ± 0.06 °C |
| Cc1cc(C)nc(N)c1 [Compound 12] | 51.9 ± 8.1 µM | 21.3 ± 3.5 µM | 1.59 ± 0.06 °C |  |
| Cc1c(Br)cnc2c1CCCN2 [Compound 3] | 58.5 ± 8.4 µM | 75.7 ± 14.4 µM | 0.1 ± 0.06 °C |  |
| c1cnc2c(c1)CCCN2 [Compound 2] | 109 ± 18.2 µM | 164 ± 33 µM | 0.75 ± 0.02 °C |  |
| Cc1cc(C)nc(C)c1 [Compound 15] | 47.2 ± 4.9 µM | > 500 µM | 1.11 ± 0.06 °C |  |
| Cc1ccnc(N)c1 [Compound 8] | 238 ± 89.1 µM | 52.6 ± 6.9 µM | 0.66 ± 0.09 °C |  |
| Cc1cc(C)c2c(n1)NCCC2 [Compound F1957-0088] |  |  |  | ΔTm at 500 µM (UHRF1-TTD): 1.52 ± 0.09 °C; ΔTm at 200 µM (UHRF1-TTD): 1.74 °C |
| H3K9me3 peptide: histone H3 (1–20) peptide trimethylated at Lys9, TTD ligand [reference compound] |  |  |  | inhibition of N-UHRF1:C-UHRF1 interaction by peptide (in words) (N-UHRF1 vs. C-UHRF1): could inhibit |
| Nc1ncc(Br)c2cc[nH]c12 [Compound F1957-0227] |  |  |  | hit call in TSA against UHRF1-SRA domain (UHRF1-SRA domain): hit; hit call in AlphaScreen UHRF1-SRA domain vs. DNMT1-RFTS domain [2]: hit; hit call in TSA against DNMT1-RFTS domain (DNMT1-RFTS domain): hit; hit call in TSA against USP7-UBL1/2 (USP7-UBL1/2): hit; ΔTm at 200 µM (UHRF1-TTD): 2.58 °C; hit call in AlphaScreen N-UHRF1 vs. USP7-UBL1/2 (N-UHRF1 vs. USP7-UBL1/2): hit |
| H3K4me3 peptide: histone H3 (1-20) peptide trimethylated at Lys4, negative control [reference compound] |  |  |  | inhibition of N-UHRF1:C-UHRF1 interaction by peptide (in words) (N-UHRF1 vs. C-UHRF1): not |
| Cc1ccnc(Cl)c1 [Compound 9] |  |  |  | TR-FRET (TTD vs. H3K9me3) EC50 [1]: No inhibition; AlphaScreen (N-UHRF1 vs. C-UHRF1) EC50 (N-UHRF1 vs. C-UHRF1): No inhibition |
| c1cnc2c(c1)CCCC2 [Compound 6, 5,6,7,8-tetra-hydro-quinoline] | > 500 µM |  |  | AlphaScreen (N-UHRF1 vs. C-UHRF1) EC50 (N-UHRF1 vs. C-UHRF1): 281.7 ± 227.7 µM; ΔTm at 500 µM (UHRF1-TTD): 0.21 ± 0.06 °C |
